Data reported in ChEMBL document CHEMBL1133141, “Synthesis and biological activities of hapalosin derivatives with modification at the C12 position” (2000).

Tests used:
A2780 = test: MDR-reversing activity was measured by vincristine accumulation in the multidrug resistant 2780AD, a subline of A2780 ovarian carcinoma cells at 10 µg/mL
HT-1080 = test: Compound was tested for the induction of apoptosis in human fibrosarcoma HT1080 cell line; No induction of apoptosis up to 10 ug/mL; format: functional, cell-based

Row | Compound | Vincristine accumulation (% of control) (A2780) [%] | Concentration (HT-1080)
1 | CCCCCCC[C@H]1OC(=O)C[C@@H](O)[C@H](Cc2ccccc2)N(C)C(=O)[C@H](C)OC(=O)[C@H]1C | 441 | No induction
2 | CCCCCCC[C@H]1OC(=O)C[C@@H](O)[C@H](Cc2ccccc2)N(C)C(=O)[C@H](Cc2ccccc2)OC(=O)[C@H]1C | 254 | No induction
3 | CCCCCCC[C@H]1OC(=O)C[C@@H](O)[C@H](Cc2ccccc2)N(C)C(=O)[C@H](CCSC)OC(=O)[C@H]1C | 269 | No induction
4 | CCCCCCC[C@H]1OC(=O)C[C@@H](O)[C@H](Cc2ccccc2)N(C)C(=O)[C@H](CC(C)C)OC(=O)[C@H]1C | 288 | No induction
5 | CCCCCCC[C@H]1OC(=O)C[C@@H](O)[C@H](Cc2ccccc2)N(C)C(=O)[C@H](C(C)C)OC(=O)[C@H]1C [HAPALOSIN] | 267 | No induction
6 | CCCCCCC[C@H]1OC(=O)C[C@@H](O)[C@H](Cc2ccccc2)N(C)C(=O)[C@H](C(C)CC)OC(=O)[C@H]1C (stereo partly drawn) | 308 | No induction
7 | COc1ccc(CCN(C)CCCC(C#N)(c2ccc(OC)c(OC)c2)C(C)C)cc1OC (stereo not drawn) [VERAPAMIL] | 350 | 
